Literature values in US20170015852A1, “INK COMPOSITION” (KERACOL LIMITED, priority 2014, published 2017).

Experiments:
[1] = system: rats; conditions: high doses
[2] = system: human health; conditions: toxicological reports; approved food colorants E100, E120, E163

Row | solubility in ethanol [% w/v] | Structure (SMILES) | carcinogenicity [1] | threat to human health [2]
1 | 0.79 | O=C1OC2(c3ccccc31)c1cc(I)c(O)c(I)c1Oc1c2cc(I)c(O)c1I [erythrosine] | cause cancer | 
2 |  | Cc1c(C(=O)O)c(O)cc2c1C(=O)c1c(O)c([C@@H]3O[C@H](CO)[C@@H](O)[C@H](O)[C@H]3O)c(O)c(O)c1C2=O [carminic acid] |  | pose no threat to human health
